This is an account of results in article PMC9804781, “Identification of a Novel Pseudo‐Natural Product Type IV IDO1 Inhibitor Chemotype” (Angewandte Chemie (International Ed. in English), 2022).

Test [1] concerns the target T1, IDO1 (Homo sapiens, UniProt P14902). In words: Kyn assay in IDO1-HEK293T cells (CMV promoter). In kind it is cell-based. Conditions: absence of IFN-γ; L-Trp, 24 h; p-DMAB. Details: host or cells: HEK293T. Here is the method:
page 80: temperature and centrifuged for 10 min at 1800 x g. Afterwards, an equal volume of freshly prepared 2% (w/v) p-DMAB in glacial acetic acid (Ehrlich reagent) was added prior to measuring the absorbance at 492 nm and 650 nm on the Spark® Multimode Microplate Reader (Tecan, AT). To determine the Kyn levels, the absorbance of the Kyn-p-DMAB adduct […] was subtracted by the background absorbance A650 and normalized to the DMSO control. Data analysis was performed using a non-linear regression curve fit and GraphPad Prism 9.0 (GraphPad Software, Inc, US) to generate dose-response curves and obtain IC50 values. […] Afterwards, an equal volume of freshly prepared 2% (w/v) p-DMAB in glacial acetic acid (Ehrlich reagent) was added prior to measuring the absorbance at 492 nm and 650 nm on the Spark® Multimode Microplate Reader (Tecan, AT). To determine the Kyn levels, the absorbance of the Kyn-p-DMAB adduct […] was subtracted by the background absorbance A650 and normalized to the DMSO control. […] Afterwards, an equal volume of freshly prepared 2% (w/v) p-DMAB in glacial acetic acid (Ehrlich reagent) was added prior to measuring absorbance at 492 nm and 650 nm on the Spark® Multimode Microplate Reader (Tecan, AT). To determine the Kyn levels, the absorbance of the Kyn-p-DMAB adduct […] was subtracted by the background absorbance A650 and normalized to the DMSO control. […]

Test [2] concerns the target T2, Recombinant human His-IDO1 (rhIDO1) (Homo sapiens, UniProt P14902).
T2 construct: His; made in house; host or cells: E. coli
In words: in vitro Kyn assay (IDO1 enzymatic assay). In kind it is biochemical.
Procedure: To detect direct inhibition, 1 µM rhIDO1 was incubated with compounds for 40 min at 37°C in 50 mM potassium phosphate buffer (16.9 mM K2HPO4, 33.1 mM, KH2PO4, pH 6.5).
Subsequently, 10 mM ascorbic acid, 10 μM methylene blue, 2 mM L-Trp and 100 μg/mL catalase were added and samples were incubated for 60 min at room temperature or 37°C. Trichloroacetic acid was added to a final concentration of 7% (v/v) and samples were incubated for 30 min at 70°C. Afterwards, an equal volume of freshly prepared 2% (w/v) p-DMAB in glacial acetic acid (Ehrlich reagent) was added prior to measuring absorbance at 492 nm and 650 nm on the Spark® Multimode Microplate Reader (Tecan, AT). To determine the Kyn levels, the absorbance of the Kyn-p-DMAB adduct A492 was subtracted by the background absorbance A650 and normalized to the DMSO control. Data analysis was performed using a non-linear regression curve fit and GraphPad Prism 9.0 (GraphPad Software, Inc, US) to generate dose-response curves and obtain

Test [3] deals with T1, IDO1. In words: In-Cell CETSA for IDO1 in SKOV-3 cells. In kind it is cell-based. Details: endogenous in cells; host or cells: SKOV-3 (IFN-γ induced). Conditions: 15 min.
Procedure: SKOV-3 cells (1.25 x 10^6 cells/flask) were seeded in two T75 tissue culture flasks and incubated for 24 h prior to addition of 17.6 ng/mL IFN-γ and 10 µM succinylacetone (SA, heme synthesis inhibitor). After 24 h, cells were treated with the compound (C) or DMSO (V, vehicle) for 15 min at 37°C. Cells were detached with trypsin/EDTA and washed thrice in cold PBS after resuspension in cold PBS. C- and V-treated samples were distributed equally into ten tubes each and subjected to heating at different temperatures in the MasterCycler EpGradient S (Eppendorf SE, DE). Afterwards, NP-40 alternative was added to a final concentration of 0.4% (v/v) and cells were lysed by five consecutive freeze/thaw cycles. Soluble fractions were separated from denatured proteins by centrifugation at 100,000 x g and 4°C for 20 min. Supernatants were transferred to new tubes and subjected to immunoblot analysis.
In a further test the test system is Kyn levels in HeLa cells. The test is described as follows: Manual Kyn assay in HeLa cells (p-DMAB detection). The format is cell-based. Conditions: for IC50: IFN-γ, L-Trp, p-DMAB. Here is the method:
Mammalian cell lines were maintained at 37°C and 5% CO2 in a humidified atmosphere and sub-cultivated twice a week. All cell lines were tested regularly for mycoplasma contamination and were always free of mycoplasma. BxPC-3 cells (DSMZ#760) were grown in RPMI-1640 medium supplemented with 10% FBS, 2 mM L-glutamine, 1 mM sodium pyruvate, 4.5 g/L glucose, 10 mM HEPES and 1.5 g/L NaHCO3. HeLa cells (DSMZ#57) were cultivated in DMEM supplemented with 10% FBS, 4.5 g/L glucose, 4 mM L-glutamine 1 mM sodium pyruvate, 1% non-essential amino acids, 3.7 g/L NaHCO3. SKOV-3 cells (ATCC#HTB-77) were maintained in modified McCoy’s 5A medium supplemented with 10% FBS, 1.5 mM L-glutamine and 2.2 g/L NaHCO3. […]
For manual testing, BxPC-3, HeLa or SKOV-3 cells (20,000 cells/well, 5,000 cells/well or 6,250 cells/well, respectively) were seeded in 96-well plates (BxPC-3 and HeLa) or 384-well plates (SKOV-3) in medium without phenol red. After 24 h, the IDO1 pathway was induced by addition of 50 ng/mL (BxPC-3 and HeLa) or 17.6 ng/mL IFN-γ (SKOV-3) and 380 µM (BxPC-3), 164.15 µM (HeLa) or 450 µM L-Trp (SKOV-3) with simultaneous treatment with the compounds at the indicated concentrations followed by incubation for 48 h. For the hemin competition assay, hemin was added together with IFN-γ, L-Trp and the compounds. Subsequently, trichloroacetic acid was added to a final concentration of 7% (v/v), the plates were incubated for 15 min at room […]
temperature and centrifuged for 10 min at 1800 x g. Afterwards, an equal volume of freshly prepared 2% (w/v) p-DMAB in glacial acetic acid (Ehrlich reagent) was added prior to measuring the absorbance at 492 nm and 650 nm on the Spark® Multimode Microplate Reader (Tecan, AT).
To determine the Kyn levels, the absorbance of the Kyn-p-DMAB adduct A492 was subtracted by the background absorbance A650 and normalized to the DMSO control. Data analysis was performed using a non-linear regression curve fit and GraphPad Prism 9.0 (GraphPad Software, Inc, US) to generate dose-response curves and obtain IC50 values. […]
Subsequently, 10 mM ascorbic acid, 10 μM methylene blue, 2 mM L-Trp and 100 μg/mL catalase were added and samples were incubated for 60 min at room temperature or 37°C. […]

Where two headings read alike, the source gives them in different places.

T1 sequence (P14902 whole entry): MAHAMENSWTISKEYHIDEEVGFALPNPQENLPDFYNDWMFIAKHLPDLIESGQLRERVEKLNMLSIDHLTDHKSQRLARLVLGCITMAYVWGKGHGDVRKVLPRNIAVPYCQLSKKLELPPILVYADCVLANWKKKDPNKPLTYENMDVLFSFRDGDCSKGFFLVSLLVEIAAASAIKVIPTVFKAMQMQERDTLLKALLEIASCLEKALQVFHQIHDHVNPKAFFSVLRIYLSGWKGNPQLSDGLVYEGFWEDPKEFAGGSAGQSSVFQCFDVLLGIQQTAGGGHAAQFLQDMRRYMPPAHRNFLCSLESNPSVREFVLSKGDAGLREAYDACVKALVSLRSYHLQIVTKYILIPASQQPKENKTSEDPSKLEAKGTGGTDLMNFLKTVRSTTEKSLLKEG
T2 sequence (P14902 whole entry): as above

In general, ΔTm refers to the change in melting temperature against a reference sample. A word on the IC50: it is the midpoint of a concentration-inhibition curve. Take `CCOC(=O)C1=CC[C@](C(=O)OC)(c2cc3ccccc3n2C)N(S(=O)(=O)c2ccc(C)cc2)[C@@H]1C(=O)OC(C)(C)C` [Compound 3d]: the “Kyn production in HEK293T cells transiently expressing IDO1” value at IDO1 [1] is given as “inhibited Kyn production”. Also, in test [2] (25 °C), the “IDO1 enzymatic assay activity at 25 °C” value was “inactive”. Besides, the “IDO1 activity after pre-incubation at 37 °C” value in test [2] (holo-IDO1, 40 min at 37 °C) is on record as “decreased IDO1 activity”. Besides, the “CETSA shift in Tm of IDO1 (result in words)” value on IDO1 [3] (IFN-γ 24 h, 50 μM, no succinylacetone) is “did not lead to a shift”. Moreover, the ΔTm at 30 µM on IDO1 [3] (SK-OV-3, IFN-γ and 10 μM succinylacetone 24 h, 30 μM, read-out: CETSA ΔTm of apo-IDO1) was determined as 7.9 ± 0.6 °C. For the same compound, in the test on Kyn levels in HeLa cells, the “fold less active than enantiopure apoxidole-1 (Kyn assay)” value is 72 fold. Further, the 50% inhibitory concentration (IC50) in the test with Kyn levels in HeLa cells (Homo sapiens, HeLa, 48 h, 48 h, mean±SD, n=3, read-out: Kyn assay IC50 HeLa) was 46.7 ± 2.4 nM; with Kyn levels in HeLa cells (48 h, mean±SD, n=3, listed as apoxidole-1, read-out: Kyn assay IC50 HeLa), 46.7 ± 2.44 nM; in the test with Kyn levels in HeLa cells (compounds 48 h, mean n=3 ±SD, listed as 3d^a, read-out: Kyn Assay IC50), 280 ± 40 nM; with Kyn levels in HeLa cells (compounds 48 h, mean n=3 ±SD, listed as 3d^ab, read-out: Kyn Assay IC50), 3410 ± 260 nM; in the test on Kyn levels in HeLa cells (compounds 48 h, mean n=3 ±SD, listed as 3d^b, read-out: Kyn Assay IC50), 47 ± 2 nM; with Kyn levels in HeLa cells (compounds 48 h, mean n=3 ±SD, read-out: Kyn Assay IC50), 70 ± 10 nM.
